Experimental data taken from patent publication US6894046B2, “IL-5 inhibiting 6-azauracil derivatives” (Janssen Pharmaceutica N.V., priority 1998, dated 2005).
Counter-ions that a name gives are not always drawn.

Tested on: IL-5 production in human blood
Assay: In vitro inhibition of IL-5 production in human blood (phytohemagglutinin-stimulated whole blood, ELISA)
Format: cell-based
Conditions: test dose 1×10^−6 M, phytohemagglutinin 2 μg/ml, 48 hours
Protocol: EXAMPLE C.1: IN VITRO INHIBITION OF IL-5 PRODUCTION IN HUMAN BLOOD
Peripheral blood from healthy male donors was drawn into heparinized syringes (12.5 U heparin/ml). Blood samples were three-fold diluted in RMPI 1640 medium (Life Technologies, Belgium) supplemented with 2 mM L-glutamine, 100 U/ml penicillin and 100 μg/ml streptomycin, and 300 μl fractions were distributed in 24-well multidisc plates. Blood samples were preincubated (60 minutes at 37° C.) in a humidified 6% CO2-atmosphere with 100 μl of drug solvent (final concentration 0.02% dimethylsulfoxide in RPMI 1640) or with 100 μl of an appropriate dose of test compound before being stimulated by the addition of 100 μl of phytohemagglutinin HA17 (Murex, UK) at a final concentration of 2 μg/ml. After 48 hours, cell-free supernatant fluids were collected by centrifugation and stored at −70° C. until tested for the presence of IL-5.
IL-5 measurements were conducted as described in Van Wauwe et al. (1996, Inflamm Res, 45, 357-363) on page 358 using ELISA.
Table 6 lists the percentage inhibition of IL-5 production (column “% inh”) at a test dose of 1×10^−6 M, or in case the percentage inhibition is marked with an “*” 1×10^−5 M, for the compounds of the present invention.

Compared with CC(C)(c1nc(-c2ccccc2)c(-c2cccc(OS(N)(=O)=O)c2)s1)c1c(Cl)cc(-n2ncc(=O)[nH]c2=O)cc1Cl [Compound 66, 3-[2-[1-[2,6-dichloro-4-(4,5-dihydro-3,5-dioxo-1,2,4-triazin-2(3H)-yl)phenyl]-1-methylethyl]-4-phenyl-5-thiazolyl]phenylsulfamate (ester)], “3-[2-[1-[2,6-dichloro-4-(4,5-dihydro-3,5-dioxo-1,2,4-triazin-2(3H)-yl)phenyl]-1-methylethyl-4-(2-chlorophenyl)-5-thiazolyl]-N-(2-methoxyethyl)-benzamide [Compound 63]” is lower in “% inh. (percentage inhibition of IL-5 production)” value: 53% for the first, 38% for the second.

Compared with Cc1sc(C(C)(C)c2c(Cl)cc(-n3ncc(=O)[nH]c3=O)cc2Cl)nc1-c1cccc(F)c1 [Compound 17], CC(C)(c1nc(-c2cccc(F)c2)cs1)c1c(Cl)cc(-n2ncc(=O)[nH]c2=O)cc1Cl [Compound 28] is lower in “% inh. (percentage inhibition of IL-5 production)” value: 94% for the first, 83% for the second.

First: COC(=O)c1ccc(-c2nc(C(C)(C)c3c(Cl)cc(-n4ncc(=O)[nH]c4=O)cc3Cl)no2)nc1 [Compound 146]
Second: CC(C)(c1nc(-c2ccc([N+](=O)[O-])s2)cs1)c1c(Cl)cc(-n2ncc(=O)[nH]c2=O)cc1Cl [Compound 74]
The “% inh. (percentage inhibition of IL-5 production)” value of the first is lower: 4% for the first, 76% for the second.

Compared with CC(C)(c1nc(-c2csc3ccccc23)cs1)c1c(Cl)cc(-n2ncc(=O)[nH]c2=O)cc1Cl [Compound 79], CC(C)(c1noc(C2CCNCC2)n1)c1c(Cl)cc(-n2ncc(=O)[nH]c2=O)cc1Cl.Cl [Compound 152] is lower in “% inh. (percentage inhibition of IL-5 production)” value: 75% for the first, 21% for the second.

First: COCCNCc1cccc(-c2sc(C(C)(C)c3c(Cl)cc(-n4ncc(=O)[nH]c4=O)cc3Cl)nc2-c2ccccc2Cl)c1.Cl [Compound 69]
Second: CC(C)(c1nc(-c2ccccc2)c(-c2cccc(NS(N)(=O)=O)c2)s1)c1c(Cl)cc(-n2ncc(=O)[nH]c2=O)cc1Cl [Compound 60]
The “% inh. (percentage inhibition of IL-5 production)” value of the first is higher: 45% for the first, 28% for the second.

Compared with “1-[[2-[1-[2,6-dichloro-4-(4,5-dihydro-3,5-dioxo-1,2,4-triazin-2(3H)-yl)-phenyl]-1-methylethyl]-4-phenyl-2-thiazolyl]acetyl-4-phenylmethyl)piperazine [Compound 35]”, CC(C)(c1nc(-c2ccccc2)c(CC(=O)N2CCOCC2)s1)c1c(Cl)cc(-n2ncc(=O)[nH]c2=O)cc1Cl [Compound 20] is higher in “% inh. (percentage inhibition of IL-5 production)” value: 63% for the first, 80% for the second.

Going from CC(C)(c1noc(-c2ccc(F)cc2)n1)c1c(Cl)cc(-n2ncc(=O)[nH]c2=O)cc1Cl [Compound 96] to CC(C)(c1nc(-c2ccccc2)c(CC(=O)N2CCC(O)CC2)s1)c1c(Cl)cc(-n2ncc(=O)[nH]c2=O)cc1Cl [Compound 22], the “% inh. (percentage inhibition of IL-5 production)” value falls from 82% to 18%.

Going from CC(C)(c1noc(-c2ccccc2Cl)n1)c1c(Cl)cc(-n2ncc(=O)[nH]c2=O)cc1Cl [Compound 89] to CC(C)(c1nc(-c2ccccc2Cl)c(-c2cccc(C(=O)O)c2)s1)c1c(Cl)cc(-n2ncc(=O)[nH]c2=O)cc1Cl [Compound 56], the “% inh. (percentage inhibition of IL-5 production)” value falls from 84% to −4%.

Going from CC(=O)N1CCC(c2sc(C(C)(C)c3c(Cl)cc(-n4ncc(=O)[nH]c4=O)cc3Cl)nc2-c2ccccc2)CC1 [Compound 39] to CCc1sc(C(C)(C)c2c(Cl)cc(-n3ncc(=O)[nH]c3=O)cc2Cl)nc1-c1ccc(-c2ccccc2)cc1 [Compound 48], the “% inh. (percentage inhibition of IL-5 production)” value falls from 72% to 58%.

First: Cc1sc(C(C)(C)c2c(Cl)cc(-n3ncc(=O)[nH]c3=O)cc2Cl)nc1-c1ccccc1Cl [Compound 27]
Second: CN1CCN(Cc2ccc(-c3csc(C(C)(C)c4c(Cl)cc(-n5ncc(=O)[nH]c5=O)cc4Cl)n3)s2)CC1 [Compound 112]
The “% inh. (percentage inhibition of IL-5 production)” value of the first is higher: 77% for the first, 39% for the second.

Compared with CC(C)(c1nc(-c2ccccc2Cl)c(-c2ccccc2)s1)c1c(Cl)cc(-n2ncc(=O)[nH]c2=O)cc1Cl [Compound 32], Cc1ccc(-c2nc(C(C)(C)c3c(Cl)cc(-n4ncc(=O)[nH]c4=O)cc3Cl)no2)cc1 [Compound 125] is lower in “% inh. (percentage inhibition of IL-5 production)” value: 91% for the first, 43% for the second.

Compared with Cc1cccc(-c2nc(C(C)(C)c3c(Cl)cc(-n4ncc(=O)[nH]c4=O)cc3Cl)no2)c1 [Compound 91], CC(C)(c1nc(-c2ccccc2)c(CC(=O)O)s1)c1c(Cl)cc(-n2ncc(=O)[nH]c2=O)cc1Cl [Compound 19, 2-[1-[2,6-dichloro-4-(4,5-dihydro-3,5-dioxo-1,2,4-triazin-2(3H)-yl)phenyl]1-α-methylethyl]-4-phenyl-5-thiazoleacetic acid] is lower in “% inh. (percentage inhibition of IL-5 production)” value: 81% for the first, 13% for the second.

Compared with CC(C)(c1noc(-c2ccccc2F)n1)c1c(Cl)cc(-n2ncc(=O)[nH]c2=O)cc1Cl [Compound 86], CN1CCN(c2sc(C(C)(C)c3c(Cl)cc(-n4ncc(=O)[nH]c4=O)cc3Cl)nc2-c2ccccc2)CC1 [Compound 16] is lower in “% inh. (percentage inhibition of IL-5 production)” value: 88% for the first, 57% for the second.

First: (α+β)-2-[3,5-dichloro-4-[1-[5-[3-[[tetrahydro-3,4,5-trihydroxy-6-hydroxymethyl)-2H-pyran-2H-pyran-2-yl]amino]phenyl]-4-phenyl-2-thiazolyl]-1-methylethyl]phenyl]-1,2,4-triazine-3,5(2H,4H)-dione 2-propanolate(1:1) [Compound 64]
Second: CC(C)(c1nc(-c2ccccc2)c(-c2cccc([N+](=O)[O-])c2)s1)c1c(Cl)cc(-n2ncc(=O)[nH]c2=O)cc1Cl [Compound 49]
The “% inh. (percentage inhibition of IL-5 production)” value of the first is lower: 86% for the first, 95% for the second.

Compared with CC(C)(c1nc(-c2ccc(Br)cc2)cs1)c1c(Cl)cc(-n2ncc(=O)[nH]c2=O)cc1Cl [Compound 12], Cc1ccnc(C)c1-c1nc(C(C)(C)c2c(Cl)cc(-n3ncc(=O)[nH]c3=O)cc2Cl)no1.ClCCl [Compound 151] is higher in “% inh. (percentage inhibition of IL-5 production)” value: 70% for the first, 74% for the second.

Going from CC(C)(c1nc(-c2cccs2)cs1)c1c(Cl)cc(-n2ncc(=O)[nH]c2=O)cc1Cl [Compound 5] to COCc1cccc(-c2nc(C(C)(C)c3c(Cl)cc(-n4ncc(=O)[nH]c4=O)cc3Cl)sc2C)c1 [Compound 44], the “% inh. (percentage inhibition of IL-5 production)” value falls from 90% to 81%.

With Cc1sc(C(C)(C)c2c(Cl)cc(-n3ncc(=O)[nH]c3=O)cc2Cl)nc1-c1ccccc1F [Compound 15] the “% inh. (percentage inhibition of IL-5 production)” value was 81%.

Same assay, conditions: test dose 1×10^−6 M, phytohemagglutinin 2 μg/ml, 48 hours, read-out: % inh. (percentage inhibition of IL-5 production)

First: CC(C)(c1nc(-c2ccccc2)c(Cc2ccccc2)s1)c1c(Cl)cc(-n2ncc(=O)[nH]c2=O)cc1Cl [Compound 43, 2-[3,5-dichloro-4-[1-methyl-1-[4-phenyl-5-(phenylmethyl)-2-thiazolyl]ethyl]phenyl]-1,2,4-triazine-3,5(2H,4H)-dione]
Second: CC(C)(c1nc(-c2ccccc2)c(-c2ccccc2)s1)c1c(Cl)cc(-n2ncc(=O)[nH]c2=O)cc1Cl [Compound 23, 2-[3,5-dichloro-4-[1-(4,5-diphenyl-2-thiazolyl)-1-methylethyl]phenyl]-1,2,4-triazine-3,5(2H,4H)-dione]
The inhibition at 1 µM of the first is lower: 86% for the first, 91% for the second.

First: CN1CCN(Cc2ccccc2-c2nc(C(C)(C)c3c(Cl)cc(-n4ncc(=O)[nH]c4=O)cc3Cl)no2)CC1 [Compound 94, 2-[3,5-dichloro-4-[1-methyl-1-[5-[2-[(4-methyl-1-piperazinyl)methyl]phenyl]-1,2,4-oxadiazol-3-yl]ethyl]phenyl]-1,2,4-triazine-3,5(2H,4H)-dione trihydrochloride]
Second: Cc1ncccc1-c1nc(C(C)(C)c2c(Cl)cc(-n3ncc(=O)[nH]c3=O)cc2Cl)no1 [Compound 150, 2-[3,5-dichloro-4-[1-methyl-1-[5-(2-methyl-3-pyridinyl)-1,2,4-oxadiazol-3-yl]ethyl]phenyl]-1,2,4-triazine-3,5(2H,4H)-dione]
The inhibition at 1 µM of the first is lower: 34% for the first, 73% for the second.

Compared with CC(C)(c1nc(-c2ccccc2)c(-c2cccnc2)s1)c1c(Cl)cc(-n2ncc(=O)[nH]c2=O)cc1Cl [Compound 33, 2-[3,5-dichloro-4-[1-methyl-1-[4-phenyl-5-(3-pyridinyl)-2-thiazolyl]ethyl]phenyl]-1,2,4-triazine-3,5(2H,4H)-dione], CC(C)(c1nc(-c2ccccc2)c(-c2cccc(N)c2)s1)c1c(Cl)cc(-n2ncc(=O)[nH]c2=O)cc1Cl [Compound 50, 2-[4-[1-[5-(3-aminophenyl)4-phenyl-2-thiazolyl]-1-methylethyl]-3,5-dichlorophenyl]-1,2,4-triazine-3,5(2H,4H)-dione] is higher in inhibition at 1 µM: 90% for the first, 91% for the second.

Going from CC(=O)Nc1cccc(-c2sc(C(C)(C)c3c(Cl)cc(-n4ncc(=O)[nH]c4=O)cc3Cl)nc2-c2ccccc2)c1 [Compound 51, N-[3-[2-[1-[2,6-dichloro-4-(4,5-dihydro-3,5-dioxo-1,2,4-triazin-2(3H)-yl)phenyl]-1-methylethyl]4-phenyl-5-thiazolyl]phenyl]-acetamide] to Cc1nc(C(C)(C)c2c(Cl)cc(-n3ncc(=O)[nH]c3=O)cc2Cl)sc1-c1ccccc1 [Compound 31, 2-[3,5-dichloro-4-[1-methyl-1-(4-methyl-5-phenyl-2-thiazolyl)ethyl]phenyl]-1,2,4-triazine-3,5(2H,4H)-dione], the inhibition at 1 µM rises from 73% to 87%.
